Results as given in patent US8067611B2, “Substituted 1-(thiazolyl)-and 1-(isothiazolyl)pyrazol-4-ylacetic acids, processes for their preparation and their use as herbicides and plant growth regulators” (Bayer CropScience AG, priority 2008, dated 2011).

Columns and labels:
harmful plants = experiment: Pre-emergence herbicidal effect, greenhouse pot test; assay type: in vivo; details: application rate of 1 kg or less of active substance per hectare, scored after about 3 weeks
From the text: Seeds of monocotyledonous or dicotyledonous weed plants or crop plants are planted in wood-fiber pots in sandy loam and covered with soil. The compounds (I) according to the invention, formulated in the form of wettable powders (WP), are then applied as aqueous suspension or emulsion at a water application rate of 600 I/ha (converted) with the addition of 0.2% of wetting agent to the surface of the covering soil.
Following the treatment, the pots are placed in a greenhouse and kept under good growth conditions for the test plants. After about 3 weeks, the effect of the preparations is scored visually in comparison with untreated controls (herbicidal effect in percent (%): 100% effect=plants have died, 0% effect=as control plants).

[1] = test system: weed-grasses and broad-leaved weeds; experiment: Post-emergence herbicidal effect, greenhouse pot test; assay type: in vivo; details: application rate of 1 kg and less of active substance per hectare, scored after 3 weeks
Method: Seeds of monocotyledonous or dicotyledonous weed plants or crop plants are planted in wood-fiber pots in sandy loam, covered with soil and grown in a greenhouse under good growth conditions. 2 to 3 weeks after sowing, the test plants are treated in the one-leaf stage. The compounds according to the invention, formulated in the form of wettable powders (WP), are then sprayed onto the green plant parts as aqueous suspension or emulsion at a water application rate of 600 I/ha (converted) with the addition of 0.2% of wetting agent. After 3 weeks' standing time of the test plants in the greenhouse under optimum growth conditions, the effect of the preparations is scored visually in comparison with untreated controls (herbicidal effect in percent (%): 100% effect=plants have died, 0% effect=as control plants).

| Compound | herbicidal pre-emergence activity against a number of harmful plants (harmful plants) | post-emergence activity against a broad spectrum of weed-grasses and broad-leaved weeds [1] |
| --- | --- | --- |
| COC(=O)Cc1c(C)nn(-c2ccns2)c1-c1ccc(Cl)cc1 [Compound 2-28] | good herbicidal pre-emergence activity | good post-emergence activity |
| COC(=O)Cc1c(C)nn(-c2cncs2)c1-c1ccccn1 [Compound 8-117] | good herbicidal pre-emergence activity | good post-emergence activity |
| COC(=O)Cc1c(C)nn(-c2cnsc2)c1-c1ccc2ccccc2n1 [Compound 5-239] | good herbicidal pre-emergence activity | good post-emergence activity |
| Cc1nn(-c2cncs2)c(-c2ccc(Cl)cc2)c1CC(=O)O [Compound 7-29, [5-(4-Chlorophenyl)-3-methyl-1-(1,3-thiazol-5-yl)-1H-pyrazol-4-yl]acetic acid] | good herbicidal pre-emergence activity | good post-emergence activity |
| COC(=O)Cc1c(C)nn(-c2cnsc2)c1-c1ncc(Br)cn1 [Compound 5-227] | good herbicidal pre-emergence activity | good post-emergence activity |
| COC(=O)Cc1c(C)nn(-c2cncs2)c1-c1ccc(Cl)cn1 [Compound 8-118] | good herbicidal pre-emergence activity | good post-emergence activity |
| COC(=O)Cc1c(C)nn(-c2cncs2)c1-c1nc2ccccc2s1 [Compound 8-219] | good herbicidal pre-emergence activity | good post-emergence activity |
| COC(=O)Cc1c(C)nn(-c2cncs2)c1-c1ccc(C)cc1 [Compound 8-16] | good herbicidal pre-emergence activity | good post-emergence activity |
| COC(=O)Cc1c(C)nn(-c2cncs2)c1-c1ncc(Br)cn1 [Compound 8-230] | good herbicidal pre-emergence activity | good post-emergence activity |
| COC(=O)Cc1c(C)nn(-c2cnsc2)c1-c1ccc(Cl)cn1 [Compound 5-116] | good herbicidal pre-emergence activity | good post-emergence activity |
| COC(=O)Cc1c(C)nn(-c2cnsc2)c1-c1ccc(F)cc1 [Compound 5-131] | good herbicidal pre-emergence activity | good post-emergence activity |
| COC(=O)Cc1c(C)nn(-c2cnsc2)c1-c1ccccn1 [Compound 5-115] | good herbicidal pre-emergence activity | good post-emergence activity |
| Cc1nn(-c2cncs2)c(-c2ccc(Cl)cc2)c1CC(=O)OCC1CC1 [Compound 9-122] | good herbicidal pre-emergence activity | good post-emergence activity |
| COC(=O)Cc1c(C)nn(-c2cncs2)c1-c1ccc(C(F)(F)F)cc1 [Compound 8-32] | good herbicidal pre-emergence activity | good post-emergence activity |
| CCOC(=O)Cc1c(C)nn(-c2cncs2)c1-c1ccc(Cl)cc1 [Compound 9-4] | good herbicidal pre-emergence activity | good post-emergence activity |
| COC(=O)Cc1c(C)nn(-c2cc(C)ns2)c1-c1ccc(Cl)cc1 [Compound 2-147, Methyl[5-(4-chlorophenyl)-3-methyl-1-(3-methylisothiazol-5-yl)-1H-pyrazol-4-yl]acetate] | good herbicidal pre-emergence activity | good post-emergence activity |
| COC(=O)Cc1c(C)nn(-c2cnsc2)c1-c1ccc(Cl)cc1 [Compound 5-28] | good herbicidal pre-emergence activity | good post-emergence activity |
| COC(=O)Cc1c(C)nn(-c2cnsc2)c1-c1nc2ccccc2s1 [Compound 5-216] | good herbicidal pre-emergence activity | good post-emergence activity |
| COC(=O)Cc1c(C)nn(-c2ccns2)c1-c1ccc(Br)s1 [Compound 2-68] | good herbicidal pre-emergence activity | good post-emergence activity |
| COC(=O)Cc1c(C)nn(-c2cncs2)c1-c1ncc(Cl)cn1 [Compound 8-229] | good herbicidal pre-emergence activity | good post-emergence activity |
| COC(=O)Cc1c(C)nn(-c2cncs2)c1-c1ccccc1 [Compound 8-2] | good herbicidal pre-emergence activity | good post-emergence activity |
| COC(=O)Cc1c(C)nn(-c2cncs2)c1-c1ccc(Br)s1 [Compound 8-69] | good herbicidal pre-emergence activity | good post-emergence activity |
| COC(=O)Cc1c(C)nn(-c2ccns2)c1-c1ccccn1 [Compound 2-116] | good herbicidal pre-emergence activity | good post-emergence activity |
| Cc1nn(-c2ccns2)c(-c2ccc(Br)cn2)c1CC(=O)O [Compound 1-119] | good herbicidal pre-emergence activity | good post-emergence activity |
| Cc1nn(-c2ccns2)c(-c2ccc(Br)s2)c1CC(=O)O [Compound 1-67] | good herbicidal pre-emergence activity | good post-emergence activity |
| COC(=O)Cc1c(C)nn(-c2cnsc2)c1-c1ccc(Br)cn1 [Compound 5-119] | good herbicidal pre-emergence activity | good post-emergence activity |
| COC(=O)Cc1c(C)nn(-c2cncs2)c1-c1ccc2ccccc2n1 [Compound 8-239] | good herbicidal pre-emergence activity | good post-emergence activity |
| COC(=O)Cc1c(C)nn(-c2cncs2)c1-c1sccc1C [Compound 8-64] | good herbicidal pre-emergence activity | good post-emergence activity |
